Values after ≈ are worked out from the molar mass of the structure shown.

The test system of one assay is Mannheimia haemolytica MH 6357 (M7/2, reference strain, cattle infection strain). The assay can be described thus: MIC, broth-microdilution (CLSI VET01-A4), strain MH 6357. The format is cell-based. Particulars: Mannheimia haemolytica strain MH 6357, broth-microdilution; unit assumed. An outline of the steps: (§1)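 Doubling dilution series in trays; visual read, MIC = lowest conc. with no visible turbidity; interpretation per CLSI VET01-S3.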
In general terms: In broth dilution the organism is exposed to a series of concentrations in liquid medium.
With `O=C(N[C@@H](CO)C(=O)NO)c1ccc(C#Cc2ccc(CN3CCCCC3)cc2)cc1` [Compound 156], the MIC MH 6357 was determined as 6.3 µg/mL (≈ 14.9 µM).
On the same count and under the same terms, as for `O=C(N[C@@H](CO)C(=O)NO)c1ccc(C#Cc2ccc(CNC3CCCC3)cc2)cc1` [Compound 148], the figure is 6.3 µg/mL (≈ 14.9 µM); as for `CC(C)(O)[C@H](NC(=O)c1ccc(C#Cc2ccc(CNC3CC3)nc2)cc1)C(=O)NO` [Compound 324], 0.4 µg/mL (≈ 0.947 µM); as for `CC[C@H](C)[C@H](NC(=O)c1ccc(C#Cc2ccc(CNC3CCC3)cc2)cc1)C(=O)NO` [Compound 197], 1.6 µg/mL (≈ 3.69 µM).

The test system of another assay is Mannheimia haemolytica MH 6374 (ATCC 33396, reference strain). The assay can be described thus: MIC, broth-microdilution (CLSI VET01-A4), strain MH 6374. The format is cell-based. The settings on record: Mannheimia haemolytica strain MH 6374, broth-microdilution; unit assumed. An outline of the steps: as §1
`O=C(N[C@@H](CO)C(=O)NO)c1ccc(C#Cc2ccc(CN3CCCCC3)cc2)cc1` [Compound 156] gave an MIC MH 6374 of 6.3 µg/mL (≈ 14.9 µM).
On the same count and under the same terms, the same measure for `O=C(N[C@@H](CO)C(=O)NO)c1ccc(C#Cc2ccc(CNC3CCCC3)cc2)cc1` [Compound 148]: 25 µg/mL (≈ 59.3 µM); for `CC(C)(O)[C@H](NC(=O)c1ccc(C#Cc2ccc(CNC3CC3)nc2)cc1)C(=O)NO` [Compound 324]: 0.8 µg/mL (≈ 1.89 µM).
In the case of `CC[C@H](C)[C@H](NC(=O)c1ccc(C#Cc2ccc(CNC3CCC3)cc2)cc1)C(=O)NO` [Compound 197], the MIC MH 6374 is 3.1 µg/mL (≈ 7.15 µM).

The test system of another assay is Mannheimia haemolytica MH 10720 (154, BRD field isolate). Kind of assay: MIC, broth-microdilution (CLSI VET01-A4), strain MH 10720. The settings on record: Mannheimia haemolytica strain MH 10720, broth-microdilution; unit assumed. The format is cell-based. An outline of the steps:
as §1
Take `O=C(N[C@@H](CO)C(=O)NO)c1ccc(C#Cc2ccc(CN3CCCCC3)cc2)cc1` [Compound 156]: the MIC MH 10720 worked out at 1.6 µg/mL (≈ 3.8 µM).
For `O=C(N[C@@H](CO)C(=O)NO)c1ccc(C#Cc2ccc(CNC3CCCC3)cc2)cc1` [Compound 148], the MIC MH 10720 turned out to be 1.6 µg/mL (≈ 3.8 µM).
The same measure, in the same setting: the same measure for `CC(C)(O)[C@H](NC(=O)c1ccc(C#Cc2ccc(CNC3CC3)nc2)cc1)C(=O)NO` [Compound 324]: no more than 0.1 µg/mL; for `CC[C@H](C)[C@H](NC(=O)c1ccc(C#Cc2ccc(CNC3CCC3)cc2)cc1)C(=O)NO` [Compound 197]: 0.4 µg/mL (≈ 0.923 µM).

For the next assay, the system named is Mannheimia haemolytica MH 12587 (1071, BRD field isolate, macrolide-resistance: erm+, E+). The assay can be described thus: MIC, broth-microdilution (CLSI VET01-A4), strain MH 12587. The format is cell-based. Particulars: Mannheimia haemolytica strain MH 12587, broth-microdilution; unit assumed. An outline of the steps: as §1
In the case of `O=C(N[C@@H](CO)C(=O)NO)c1ccc(C#Cc2ccc(CN3CCCCC3)cc2)cc1` [Compound 156], the MIC MH 12587 is 12.5 µg/mL (≈ 29.7 µM).
The same measure, in the same setting: as for `O=C(N[C@@H](CO)C(=O)NO)c1ccc(C#Cc2ccc(CNC3CCCC3)cc2)cc1` [Compound 148], the figure is 25 µg/mL (≈ 59.3 µM); as for `CC(C)(O)[C@H](NC(=O)c1ccc(C#Cc2ccc(CNC3CC3)nc2)cc1)C(=O)NO` [Compound 324], 1.6 µg/mL (≈ 3.79 µM); as for `CC[C@H](C)[C@H](NC(=O)c1ccc(C#Cc2ccc(CNC3CCC3)cc2)cc1)C(=O)NO` [Compound 197], 6.3 µg/mL (≈ 14.5 µM).

A further assay has as its system Mannheimia haemolytica MH 13065 (XB0446-6003.9, BRD field isolate). The assay can be described thus: MIC, broth-microdilution (CLSI VET01-A4), strain MH 13065. The format is cell-based. Particulars: Mannheimia haemolytica strain MH 13065, broth-microdilution; unit assumed. In outline:
as §1
On to `O=C(N[C@@H](CO)C(=O)NO)c1ccc(C#Cc2ccc(CN3CCCCC3)cc2)cc1` [Compound 156], for which the MIC MH 13065 turned out to be 12.5 µg/mL (≈ 29.7 µM).
`O=C(N[C@@H](CO)C(=O)NO)c1ccc(C#Cc2ccc(CNC3CCCC3)cc2)cc1` [Compound 148] had an MIC MH 13065 of 12.5 µg/mL (≈ 29.7 µM).
As to `CC(C)(O)[C@H](NC(=O)c1ccc(C#Cc2ccc(CNC3CC3)nc2)cc1)C(=O)NO` [Compound 324], the MIC MH 13065 was found to be 0.8 µg/mL (≈ 1.89 µM).
Still for that read-out and setting: as for `CC[C@H](C)[C@H](NC(=O)c1ccc(C#Cc2ccc(CNC3CCC3)cc2)cc1)C(=O)NO` [Compound 197], the figure is 1.6 µg/mL (≈ 3.69 µM).

In the next assay the test system is Mannheimia haemolytica MH 13093 (XB0472-6014.1, BRD field isolate). The assay can be described thus: MIC, broth-microdilution (CLSI VET01-A4), strain MH 13093. The format is cell-based. The settings on record: Mannheimia haemolytica strain MH 13093, broth-microdilution; unit assumed. In outline: as §1
`O=C(N[C@@H](CO)C(=O)NO)c1ccc(C#Cc2ccc(CN3CCCCC3)cc2)cc1` [Compound 156] returned an MIC MH 13093 of 12.5 µg/mL (≈ 29.7 µM).
Same read-out and setting: as for `O=C(N[C@@H](CO)C(=O)NO)c1ccc(C#Cc2ccc(CNC3CCCC3)cc2)cc1` [Compound 148], the figure is 12.5 µg/mL (≈ 29.7 µM); as for `CC(C)(O)[C@H](NC(=O)c1ccc(C#Cc2ccc(CNC3CC3)nc2)cc1)C(=O)NO` [Compound 324], 1.6 µg/mL (≈ 3.79 µM); as for `CC[C@H](C)[C@H](NC(=O)c1ccc(C#Cc2ccc(CNC3CCC3)cc2)cc1)C(=O)NO` [Compound 197], 3.1 µg/mL (≈ 7.15 µM).

A further assay deals with Pasteurella multocida PM 6267 (P 2225 (L386), reference strain, mouse infection strain). The assay can be described thus: MIC, broth-microdilution (CLSI VET01-A4), strain PM 6267. The format is cell-based. The settings on record: Pasteurella multocida strain PM 6267, broth-microdilution; unit assumed. In outline:
as §1
On to `O=C(N[C@@H](CO)C(=O)NO)c1ccc(C#Cc2ccc(CN3CCCCC3)cc2)cc1` [Compound 156], for which the MIC PM 6267 is 0.8 µg/mL (≈ 1.9 µM).
Still for that read-out and setting: as for `O=C(N[C@@H](CO)C(=O)NO)c1ccc(C#Cc2ccc(CNC3CCCC3)cc2)cc1` [Compound 148], the figure is 0.8 µg/mL (≈ 1.9 µM).
Molecule `CC(C)(O)[C@H](NC(=O)c1ccc(C#Cc2ccc(CNC3CC3)nc2)cc1)C(=O)NO` [Compound 324] came in with an MIC PM 6267 of 0.4 µg/mL (≈ 0.947 µM).
Turning to `CC[C@H](C)[C@H](NC(=O)c1ccc(C#Cc2ccc(CNC3CCC3)cc2)cc1)C(=O)NO` [Compound 197], the MIC PM 6267 is no more than 0.1 µg/mL.

The test system of a further assay is Pasteurella multocida PM 6391 (ATCC 43137, reference strain). The assay can be described thus: MIC, broth-microdilution (CLSI VET01-A4), strain PM 6391. The format is cell-based. The settings on record: Pasteurella multocida strain PM 6391, broth-microdilution; unit assumed. The procedure:
For example, representative compounds were tested against ***, Mannheimia haemolytica and Pasteurella multocida, using the conventional broth-dilution assay.
The Minimum inhibitory concentrations (MIC) of compounds according to the invention for a number of veterinary bacterial pathogens were determined by the broth-microdilution method according to CLSI document VET01-A4.
Microdilution trays containing a doubling dilution series of the test compound were used for the tests. The MIC results were interpreted according to the CLSI documents VET01-S3. The lowest concentration of compound at which no visible growth (i.e. no turbidity) detected by the unaided eye was recorded as the MIC.
`O=C(N[C@@H](CO)C(=O)NO)c1ccc(C#Cc2ccc(CN3CCCCC3)cc2)cc1` [Compound 156] displayed an MIC PM 6391 of 1.6 µg/mL (≈ 3.8 µM).
`O=C(N[C@@H](CO)C(=O)NO)c1ccc(C#Cc2ccc(CNC3CCCC3)cc2)cc1` [Compound 148] came in with an MIC PM 6391 of 1.6 µg/mL (≈ 3.8 µM).
Still for that read-out and setting: as for `CC(C)(O)[C@H](NC(=O)c1ccc(C#Cc2ccc(CNC3CC3)nc2)cc1)C(=O)NO` [Compound 324], the figure is 0.4 µg/mL (≈ 0.947 µM).
As for `CC[C@H](C)[C@H](NC(=O)c1ccc(C#Cc2ccc(CNC3CCC3)cc2)cc1)C(=O)NO` [Compound 197], the MIC PM 6391 was 0.4 µg/mL (≈ 0.923 µM).

The next assay deals with Pasteurella multocida PM 10775 (080130003051, BRD field isolate). Kind of assay: MIC, broth-microdilution (CLSI VET01-A4), strain PM 10775. The format is cell-based. The settings on record: Pasteurella multocida strain PM 10775, broth-microdilution; unit assumed. In outline:
as §1
`O=C(N[C@@H](CO)C(=O)NO)c1ccc(C#Cc2ccc(CN3CCCCC3)cc2)cc1` [Compound 156] showed an MIC PM 10775 of no more than 0.1 µg/mL.
In turn, `O=C(N[C@@H](CO)C(=O)NO)c1ccc(C#Cc2ccc(CNC3CCCC3)cc2)cc1` [Compound 148] gave an MIC PM 10775 of no more than 0.1 µg/mL.
The same measure, in the same setting: as for `CC(C)(O)[C@H](NC(=O)c1ccc(C#Cc2ccc(CNC3CC3)nc2)cc1)C(=O)NO` [Compound 324], the figure is no more than 0.1 µg/mL; as for `CC[C@H](C)[C@H](NC(=O)c1ccc(C#Cc2ccc(CNC3CCC3)cc2)cc1)C(=O)NO` [Compound 197], no more than 0.1 µg/mL.

Another assay relates to Pasteurella multocida PM 12080 (IV102277-0093, BRD field isolate). The assay can be described thus: MIC, broth-microdilution (CLSI VET01-A4), strain PM 12080. The format is cell-based. Particulars: Pasteurella multocida strain PM 12080, broth-microdilution; unit assumed. An outline of the steps:
as §1
In turn, `O=C(N[C@@H](CO)C(=O)NO)c1ccc(C#Cc2ccc(CN3CCCCC3)cc2)cc1` [Compound 156] returned an MIC PM 12080 of 1.6 µg/mL (≈ 3.8 µM).
Turning to `O=C(N[C@@H](CO)C(=O)NO)c1ccc(C#Cc2ccc(CNC3CCCC3)cc2)cc1` [Compound 148], the MIC PM 12080 is 1.6 µg/mL (≈ 3.8 µM).
Turning to `CC(C)(O)[C@H](NC(=O)c1ccc(C#Cc2ccc(CNC3CC3)nc2)cc1)C(=O)NO` [Compound 324], the MIC PM 12080 is 0.2 µg/mL (≈ 0.473 µM).
Consider `CC[C@H](C)[C@H](NC(=O)c1ccc(C#Cc2ccc(CNC3CCC3)cc2)cc1)C(=O)NO` [Compound 197], for which the MIC PM 12080 came out at 0.2 µg/mL (≈ 0.461 µM).

The record behind these values is patent US11034650B2, “Compounds useful for treating a Mannheimia haemolytica or Histophilus somni infection” (Intervet Inc., priority 2016, dated 2021).
